Test system: 922993-354-T-J3-PDC complex spheroid viability
Test: Anticancer human tumor 922993-354-T-J3-PDC patient-derived endometrial carcinoma cell line growth inhibition [POLQ]
Conditions: for IC50: curve of first compound; for viability, T/C: stronger effect = lower value
In short: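 Three-cell-type spheroids modelling solid tumor plus stroma served as the readout system; POL inhibitors were tested individually and in combination, concentration ranges set by clinical Cmax where known.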

[1] = second compound 0.0316 µM, first compound 0.0316 µM
[2] = second compound 0.0316 µM, first compound 0.1 µM
[3] = second compound 0.0316 µM, first compound 0.316 µM
[4] = second compound 0.0316 µM, first compound 1 µM
[5] = second compound 0.0316 µM, first compound 3.16 µM
[6] = second compound 0.0316 µM, first compound 10 µM
[7] = second compound 0.1 µM, first compound 0.0316 µM
[8] = second compound 0.1 µM, first compound 0.1 µM
[9] = second compound 0.1 µM, first compound 0.316 µM
[10] = second compound 0.1 µM, first compound 1 µM
[11] = second compound 0.1 µM, first compound 3.16 µM
[12] = second compound 0.1 µM, first compound 10 µM
[13] = second compound 0.316 µM, first compound 0.0316 µM
[14] = second compound 0.316 µM, first compound 0.1 µM
[15] = second compound 0.316 µM, first compound 0.316 µM
[16] = second compound 0.316 µM, first compound 1 µM
[17] = second compound 0.316 µM, first compound 3.16 µM
[18] = second compound 0.316 µM, first compound 10 µM
[19] = second compound 1 µM, first compound 0.0316 µM
[20] = second compound 1 µM, first compound 0.1 µM
[21] = second compound 1 µM, first compound 0.316 µM
[22] = second compound 1 µM, first compound 1 µM
[23] = second compound 1 µM, first compound 3.16 µM
[24] = second compound 1 µM, first compound 10 µM
[25] = second compound 3.16 µM, first compound 0.0316 µM
[26] = second compound 3.16 µM, first compound 0.1 µM
[27] = second compound 3.16 µM, first compound 0.316 µM
[28] = second compound 3.16 µM, first compound 1 µM
[29] = second compound 3.16 µM, first compound 3.16 µM
[30] = second compound 3.16 µM, first compound 10 µM
[31] = second compound 10 µM, first compound 0.0316 µM
[32] = second compound 10 µM, first compound 0.1 µM
[33] = second compound 10 µM, first compound 0.316 µM
[34] = second compound 10 µM, first compound 1 µM
[35] = second compound 10 µM, first compound 3.16 µM
[36] = second compound 10 µM, first compound 10 µM
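Note: spheroids exposed to the agents for one week.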
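Throughout, for viability, T/C: 100% = DMSO vehicle control wells.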

**Q.** Which results are given for `C#Cc1c(F)ccc2cc(O)cc(-c3ncc4c(N5CC6CCC(C5)N6)nc(OCC56CCCN5CC(F)C6)nc4c3F)c12` (stereo unspecified) + Nc1ccc(C#CCN(C(=O)Cc2ncc(C(F)(F)F)cc2C(F)(F)F)c2ccc(F)cc2)nn1?
**A.** IC50 (second compound 0.0316 µM): > 10 µM; IC50 (second compound 0.1 µM): > 10 µM; IC50 (second compound 0.316 µM): > 10 µM; IC50 (second compound 1 µM): > 10 µM; IC50 (second compound 3.16 µM): > 10 µM; IC50 (second compound 10 µM): > 10 µM; viability, T/C [1]: 109%; viability, T/C [2]: 106%; viability, T/C [3]: 104%; viability, T/C [4]: 102%; viability, T/C [5]: 104%; viability, T/C [6]: 102%; viability, T/C [7]: 105%; viability, T/C [8]: 101%; viability, T/C [9]: 104%; viability, T/C [10]: 101%; viability, T/C [11]: 101%; viability, T/C [12]: 102%; viability, T/C [13]: 109%; viability, T/C [14]: 108%; viability, T/C [15]: 106%; viability, T/C [16]: 103%; viability, T/C [17]: 104%; viability, T/C [18]: 102%; viability, T/C [19]: 105%; viability, T/C [20]: 107%; viability, T/C [21]: 105%; viability, T/C [22]: 106%; viability, T/C [23]: 107%; viability, T/C [24]: 98.2%; viability, T/C [25]: 103%; viability, T/C [26]: 106%; viability, T/C [27]: 104%; viability, T/C [28]: 104%; viability, T/C [29]: 102%; viability, T/C [30]: 100%; viability, T/C [31]: 94.3%; viability, T/C [32]: 99.9%; viability, T/C [33]: 100%; viability, T/C [34]: 99.1%; viability, T/C [35]: 96.9%; viability, T/C [36]: 92.5%

**Q.** What does the source list for `CCc1cc2c(N3CCc4c(cc(Cn5ccnc5)cc4-c4cn(C)nc4C(F)(F)F)C3=O)cc(C)nc2c(OC)n1` + Nc1ccc(C#CCN(C(=O)Cc2ncc(C(F)(F)F)cc2C(F)(F)F)c2ccc(F)cc2)nn1?
**A.** IC50 (second compound 0.0316 µM): > 10 µM; IC50 (second compound 0.1 µM): > 10 µM; IC50 (second compound 0.316 µM): > 10 µM; IC50 (second compound 1 µM): > 10 µM; IC50 (second compound 3.16 µM): > 10 µM; IC50 (second compound 10 µM): > 10 µM; viability, T/C [1]: 103%; viability, T/C [2]: 106%; viability, T/C [3]: 105%; viability, T/C [4]: 110%; viability, T/C [5]: 107%; viability, T/C [6]: 101%; viability, T/C [7]: 108%; viability, T/C [8]: 106%; viability, T/C [9]: 108%; viability, T/C [10]: 105%; viability, T/C [11]: 101%; viability, T/C [12]: 102%; viability, T/C [13]: 103%; viability, T/C [14]: 98.1%; viability, T/C [15]: 105%; viability, T/C [16]: 106%; viability, T/C [17]: 109%; viability, T/C [18]: 104%; viability, T/C [19]: 102%; viability, T/C [20]: 100%; viability, T/C [21]: 107%; viability, T/C [22]: 107%; viability, T/C [23]: 106%; viability, T/C [24]: 99.1%; viability, T/C [25]: 99.8%; viability, T/C [26]: 107%; viability, T/C [27]: 102%; viability, T/C [28]: 105%; viability, T/C [29]: 103%; viability, T/C [30]: 99.6%; viability, T/C [31]: 99%; viability, T/C [32]: 98.3%; viability, T/C [33]: 100%; viability, T/C [34]: 102%; viability, T/C [35]: 99.3%; viability, T/C [36]: 92%

**Q.** How did the IC50 (second compound 0.0316 µM) turn out when `O=C(Nc1ccc(O)c(NS(=O)(=O)c2ccc(F)cc2)c1)c1ccc(-c2ccccc2)cc1` + Nc1ccc(C#CCN(C(=O)Cc2ncc(C(F)(F)F)cc2C(F)(F)F)c2ccc(F)cc2)nn1 was run?
**A.** The IC50 was greater than 10 µM.

**Q.** And the IC50 (second compound 0.1 µM)?
**A.** The IC50 was greater than 10 µM.

**Q.** What about the IC50 (second compound 0.316 µM) of the same compound?
**A.** Its IC50 is greater than 10 µM.

**Q.** What about the IC50 (second compound 1 µM) of the same compound?
**A.** Its IC50 is greater than 10 µM.

**Q.** And the IC50 (second compound 3.16 µM)?
**A.** The IC50 was greater than 10 µM.

**Q.** What about the IC50 (second compound 10 µM) of the same compound?
**A.** Its IC50 is greater than 10 µM.

**Q.** What about the viability, T/C [1] of the same compound?
**A.** The viability, T/C was 99.8%.

**Q.** What about the viability, T/C [2] of the same compound?
**A.** The viability, T/C was 107%.

**Q.** And the viability, T/C [3]?
**A.** The viability, T/C was 99.4%.

**Q.** What about the viability, T/C [4] of the same compound?
**A.** Its viability, T/C is 102%.

**Q.** And the viability, T/C [5]?
**A.** Its viability, T/C is 105%.

**Q.** What about the viability, T/C [6] of the same compound?
**A.** The viability, T/C was 96.2%.

**Q.** What about the viability, T/C [7] of the same compound?
**A.** The viability, T/C was 101%.

**Q.** What about the viability, T/C [8] of the same compound?
**A.** Its viability, T/C is 97.6%.

**Q.** What about the viability, T/C [9] of the same compound?
**A.** Its viability, T/C is 99.4%.

**Q.** And the viability, T/C [10]?
**A.** Its viability, T/C is 97.6%.

**Q.** And the viability, T/C [11]?
**A.** Its viability, T/C is 99.1%.

**Q.** And the viability, T/C [12]?
**A.** The viability, T/C was 102%.

**Q.** And the viability, T/C [13]?
**A.** Its viability, T/C is 100%.

**Q.** What about the viability, T/C [14] of the same compound?
**A.** Its viability, T/C is 100%.

**Q.** What about the viability, T/C [15] of the same compound?
**A.** The viability, T/C was 99.1%.

**Q.** What about the viability, T/C [16] of the same compound?
**A.** Its viability, T/C is 95.1%.

**Q.** And the viability, T/C [17]?
**A.** The viability, T/C was 103%.

**Q.** And the viability, T/C [18]?
**A.** Its viability, T/C is 105%.

**Q.** What about the viability, T/C [19] of the same compound?
**A.** The viability, T/C was 102%.

**Q.** And the viability, T/C [20]?
**A.** Its viability, T/C is 94.8%.

**Q.** What about the viability, T/C [21] of the same compound?
**A.** Its viability, T/C is 104%.

**Q.** And the viability, T/C [22]?
**A.** The viability, T/C was 93%.

**Q.** What about the viability, T/C [23] of the same compound?
**A.** The viability, T/C was 105%.

**Q.** And the viability, T/C [24]?
**A.** Its viability, T/C is 99%.

**Q.** What about the viability, T/C [25] of the same compound?
**A.** Its viability, T/C is 101%.

**Q.** And the viability, T/C [26]?
**A.** The viability, T/C was 97.7%.

**Q.** What about the viability, T/C [27] of the same compound?
**A.** Its viability, T/C is 100%.

**Q.** And the viability, T/C [28]?
**A.** Its viability, T/C is 97.4%.

**Q.** And the viability, T/C [29]?
**A.** Its viability, T/C is 105%.

**Q.** And the viability, T/C [30]?
**A.** The viability, T/C was 103%.

**Q.** And the viability, T/C [31]?
**A.** Its viability, T/C is 97.6%.

**Q.** What about the viability, T/C [32] of the same compound?
**A.** Its viability, T/C is 99.7%.

**Q.** What about the viability, T/C [33] of the same compound?
**A.** Its viability, T/C is 95%.

**Q.** And the viability, T/C [34]?
**A.** The viability, T/C was 99.1%.

**Q.** What about the viability, T/C [35] of the same compound?
**A.** Its viability, T/C is 103%.

**Q.** What about the viability, T/C [36] of the same compound?
**A.** Its viability, T/C is 102%.

— PubChem BioAssay AID1963830 (Molecular Pharmacology Branch, DTP, NCI, 2024)
